The target in one assay is T1, hTLR7 (Homo sapiens, UniProt Q9NYK1).
T1 construct: host or cells: HEK293 (HEK-Blue hTLR7)
T1 sequence (Q9NYK1 27-1049): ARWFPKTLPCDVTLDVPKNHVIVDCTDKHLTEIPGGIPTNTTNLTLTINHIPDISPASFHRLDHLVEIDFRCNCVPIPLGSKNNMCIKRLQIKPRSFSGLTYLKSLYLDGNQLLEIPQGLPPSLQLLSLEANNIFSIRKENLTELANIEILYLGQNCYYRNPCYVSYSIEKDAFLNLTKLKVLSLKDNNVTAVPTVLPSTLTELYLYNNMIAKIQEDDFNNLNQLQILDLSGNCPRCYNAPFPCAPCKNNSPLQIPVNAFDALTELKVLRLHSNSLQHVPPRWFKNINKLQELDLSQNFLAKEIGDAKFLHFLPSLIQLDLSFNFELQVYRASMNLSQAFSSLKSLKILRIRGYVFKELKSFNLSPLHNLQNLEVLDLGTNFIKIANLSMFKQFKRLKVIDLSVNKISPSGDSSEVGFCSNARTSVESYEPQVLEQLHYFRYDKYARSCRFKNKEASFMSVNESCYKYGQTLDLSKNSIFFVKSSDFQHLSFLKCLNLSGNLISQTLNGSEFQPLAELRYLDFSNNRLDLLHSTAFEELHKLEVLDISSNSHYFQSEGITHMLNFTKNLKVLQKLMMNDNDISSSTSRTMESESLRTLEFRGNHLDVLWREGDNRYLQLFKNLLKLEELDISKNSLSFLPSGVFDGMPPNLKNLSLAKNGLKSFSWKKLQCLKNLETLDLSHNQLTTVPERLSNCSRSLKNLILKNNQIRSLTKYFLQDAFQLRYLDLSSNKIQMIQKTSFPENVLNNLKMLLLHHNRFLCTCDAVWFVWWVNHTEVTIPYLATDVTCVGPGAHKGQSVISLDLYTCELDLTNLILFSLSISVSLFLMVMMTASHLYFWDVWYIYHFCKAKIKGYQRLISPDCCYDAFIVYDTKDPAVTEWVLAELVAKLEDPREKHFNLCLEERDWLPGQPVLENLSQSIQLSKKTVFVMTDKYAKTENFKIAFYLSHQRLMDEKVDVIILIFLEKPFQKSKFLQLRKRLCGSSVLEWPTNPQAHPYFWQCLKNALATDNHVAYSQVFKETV
Kind of assay: Inhibition of CL307-stimulated NF-κB activity (SEAP reporter) in hTLR7-HEK293 reporter cells. The conditions noted are these: read-out: IC50 [μM] (95% CI) hTLR7-HEK293; inhibition of NF-κB activity; 1 h preincubation, CL307 (1.7 µM) 24 h. The assay is classed as cell-based. The text has this: For stimulation experiments, cells were washed with phosphate-buffered saline (PBS, Sigma-Aldrich) and media was replaced with OptiMEM (Thermo Fisher Scientific, Darmstadt, Germany). […] The following TLR ligands were used: Pam2CSK4, Pam3CSK4, poly(I:C) (HMW), LPS from Escherichia coli O111:B4 (LPS-EB Ultrapure), flagellin from Bacillus subtilis (flagellin-BS Ultrapure), CL307, CL075, R848, TL8-506, ODN2006 (all from InvivoGen, Toulouse, France), and Enpatoran (BIOZOL Diagnostika, Germany).

The target in a further assay is T2, TLR8 F495L mutation (Homo sapiens, UniProt Q9NR97, F495L).
T2 construct: host or cells: HEK-Blue Null1 cells, transient transfection with PEI Max
T2 sequence (Q9NR97 1-1059 isoform Q9NR97-2 F513L): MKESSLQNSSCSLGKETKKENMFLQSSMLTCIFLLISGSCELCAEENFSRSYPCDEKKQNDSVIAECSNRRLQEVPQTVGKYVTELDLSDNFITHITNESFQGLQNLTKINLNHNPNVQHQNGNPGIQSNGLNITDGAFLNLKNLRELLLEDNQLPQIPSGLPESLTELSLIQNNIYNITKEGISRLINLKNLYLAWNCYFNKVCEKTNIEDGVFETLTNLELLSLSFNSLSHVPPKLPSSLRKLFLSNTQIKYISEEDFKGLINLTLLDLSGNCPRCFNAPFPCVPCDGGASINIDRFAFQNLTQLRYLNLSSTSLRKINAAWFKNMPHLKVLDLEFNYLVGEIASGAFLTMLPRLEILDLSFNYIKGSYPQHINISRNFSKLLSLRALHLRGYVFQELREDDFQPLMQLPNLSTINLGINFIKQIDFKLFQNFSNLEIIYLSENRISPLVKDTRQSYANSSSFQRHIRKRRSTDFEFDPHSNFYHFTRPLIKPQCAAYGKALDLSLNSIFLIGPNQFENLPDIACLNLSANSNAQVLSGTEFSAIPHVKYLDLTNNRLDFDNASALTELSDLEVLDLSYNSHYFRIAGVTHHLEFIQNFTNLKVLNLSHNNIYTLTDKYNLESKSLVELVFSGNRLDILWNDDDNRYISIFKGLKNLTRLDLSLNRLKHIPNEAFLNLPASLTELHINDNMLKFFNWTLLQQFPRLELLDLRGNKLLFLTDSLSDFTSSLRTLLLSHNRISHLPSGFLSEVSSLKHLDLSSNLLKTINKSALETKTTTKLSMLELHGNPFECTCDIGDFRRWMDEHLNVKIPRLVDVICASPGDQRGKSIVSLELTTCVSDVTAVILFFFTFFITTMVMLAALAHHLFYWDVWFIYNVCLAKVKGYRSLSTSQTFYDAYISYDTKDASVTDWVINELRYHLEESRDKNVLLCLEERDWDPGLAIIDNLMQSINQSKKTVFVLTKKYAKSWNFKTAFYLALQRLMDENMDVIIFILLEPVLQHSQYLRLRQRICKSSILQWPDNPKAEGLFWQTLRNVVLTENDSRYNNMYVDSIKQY
The assay can be described thus: NF-κB SEAP reporter in HEK293 reporter control cells transfected with TLR8 F495L mutant plasmid. The conditions noted are these: compound 10 2 μM, Enpatoran 1 μM; TL8-506 3 μM or CL075 4 μM, 24 h. In kind it is cell-based.

The target in assay [1] is T3, TLR8 (Homo sapiens, UniProt Q9NR97).
T3 sequence (Q9NR97 27-1041): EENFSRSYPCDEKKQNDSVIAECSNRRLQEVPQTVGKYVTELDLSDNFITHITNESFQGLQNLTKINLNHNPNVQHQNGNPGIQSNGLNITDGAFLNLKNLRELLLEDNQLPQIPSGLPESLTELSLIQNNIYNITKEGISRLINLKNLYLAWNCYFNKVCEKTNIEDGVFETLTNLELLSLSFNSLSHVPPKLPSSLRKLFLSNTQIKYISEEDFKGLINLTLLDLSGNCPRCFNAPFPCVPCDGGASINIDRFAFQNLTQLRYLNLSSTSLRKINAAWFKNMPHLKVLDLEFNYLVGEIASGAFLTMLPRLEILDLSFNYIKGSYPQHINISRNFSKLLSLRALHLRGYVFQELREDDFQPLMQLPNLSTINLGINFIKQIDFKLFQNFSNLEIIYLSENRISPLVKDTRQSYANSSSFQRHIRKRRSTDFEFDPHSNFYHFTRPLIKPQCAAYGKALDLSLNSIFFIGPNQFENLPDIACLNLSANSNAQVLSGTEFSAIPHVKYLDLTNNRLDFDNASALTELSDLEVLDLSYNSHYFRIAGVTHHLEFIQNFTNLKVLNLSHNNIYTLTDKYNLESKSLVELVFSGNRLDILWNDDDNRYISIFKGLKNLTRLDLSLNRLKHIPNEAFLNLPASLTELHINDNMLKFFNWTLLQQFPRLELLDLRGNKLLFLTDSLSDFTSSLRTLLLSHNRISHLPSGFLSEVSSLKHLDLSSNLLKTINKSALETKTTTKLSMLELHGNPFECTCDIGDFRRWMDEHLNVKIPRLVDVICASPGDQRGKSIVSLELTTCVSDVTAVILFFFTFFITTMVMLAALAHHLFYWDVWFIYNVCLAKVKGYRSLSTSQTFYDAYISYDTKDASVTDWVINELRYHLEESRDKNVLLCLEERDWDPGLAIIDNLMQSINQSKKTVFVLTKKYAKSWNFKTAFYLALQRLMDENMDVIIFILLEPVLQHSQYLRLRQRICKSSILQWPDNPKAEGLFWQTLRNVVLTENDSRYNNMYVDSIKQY
The assay can be described thus: Inhibition of TL8-506-stimulated NF-κB activity (SEAP reporter, QuantiBlue) in hTLR8-HEK293 reporter cells. In kind it is cell-based. On the set-up: host or cells: HEK293 (HEK-Blue hTLR8). Conditions: TL8-506 (0.6 μM) 24 h.

Assay [2] addresses T3, TLR8. Kind of assay: Inhibition of TL8-506-stimulated TNF release (ELISA) in PBMCs. Conditions: read-out: IC50 [μM] (95% CI) TNF release PBMCs, 1 h preincubation, TL8-506 (0.6 μM) 4 h.
Excerpt: For the calculation of concentration–response curves, nonlinear regression with variable slope (four parameters) was used. Mean ± SEM (n = 3).
PMBCs were washed three times with PBS containing ETDA and afterward seeded in 24-well plates (5 × 10^6 cells/well).

Consider `N#Cc1ccc(N2C[C@H](N)C[C@H](C(F)(F)F)C2)c2cccnc12` [Enpatoran, reference compound], for which the IC50 (usually the concentration that inhibits the measured activity by half) was ≤ 0.05 µM at hTLR7; 0.285 µM at TLR8 [1] (read-out: IC50 [μM] (95% CI) hTLR8-HEK293, inhibition of NF-κB activity, 1 h preincubation); 0.074 µM on TLR8 [2]. Also, at TLR8 F495L mutation, the “TLR8 activation in F495L mutation, triggered by CL075 and TL8-506” value was “reduced”. In addition, at TLR8 [1] (read-out: % inhibition at 10 µM ± SEM (NF-κB activity), 10 µM compound, hTLR8-HEK293), the inhibition (commonly the share of the control response that was lost under treatment) at 10 µM came to 100%.

The record behind these values is publication PMC12613816, “Discovery of Novel Isoxazole-Based Small-Molecule Toll-Like Receptor 8 Antagonists” (Journal of Medicinal Chemistry, 2025).
